What was measured:
Type in all cases: in vivo
[1] = tested on: Myzus persicae (Green peach aphid); experiment: Example B5: Activity against Myzus persicae (green peach aphid), systemic activity, pea seedlings; conditions: 144 h, test rate of 24 ppm, 6 days after placing seedlings into test solutions
Experimental: Example B5: Activity Against Myzus persicae (Green Peach Aphid) Systemic Activity
Roots of pea seedlings infested with an aphid population of mixed ages were placed directly into aqueous test solutions prepared from 10′000 DMSO stock solutions. The samples were assessed for mortality 6 days after placing seedlings into test solutions.

[2] = tested on: Spodoptera littoralis (Egyptian Cotton Leaf Worm); experiment: Example B7: Activity against Spodoptera littoralis (Egyptian cotton leaf worm), cotton leaf discs, L1 larvae; conditions: foliar, 72 h, application rate of 200 ppm, 3 days after infestation, in comparison to untreated samples, read-out: control (at least one of mortality, anti-feedant effect, growth inhibition)
Experimental: Example B7: Activity Against Spodoptera littoralis (Egyptian Cotton Leaf Worm)
Cotton leaf discs were placed onto agar in 24-well microtiter plates and sprayed with aqueous test solutions prepared from 10′000 ppm DMSO stock solutions. After drying the leaf discs were infested with five L1 larvae. The samples were assessed for mortality, anti-feeding effect, and growth inhibition in comparison to untreated samples 3 days after infestation. Control of Spodoptera littoralis by a test sample is given when at least one of the categories mortality, anti-feedant effect, and growth inhibition is higher than the untreated sample.

[3] = tested on: Chilo suppressalis (Striped Rice Stemborer); experiment: Example B1: Activity against Chilo suppressalis (striped rice stemborer), artificial diet, L2 larvae; conditions: 144 h, application rate of 200 ppm, 6 days after infestation, in comparison to untreated samples, read-out: control (at least one of mortality, anti-feedant effect, growth inhibition)
Experimental: Example B1: Activity Against Chilo suppressalis (Striped Rice Stemborer)
24-well microtiter plates with artificial diet were treated with aqueous test solutions prepared from 10′000 ppm DMSO stock solutions by pipetting. After drying, the plates were infested with L2 larvae (6-8 per well). The samples were assessed for mortality, anti-feeding effect, and growth inhibition in comparison to untreated samples 6 days after infestation. Control of Chilo suppressalis by a test sample is given when at least one of the categories mortality, anti-feedant effect, and growth inhibition is higher than the untreated sample.

[4] = tested on: Plutella xylostella (Diamond Back Moth); experiment: Example B6: Activity against Plutella xylostella (diamond back moth), artificial diet, eggs; conditions: 192 h, application rate of 200 ppm, 8 days after infestation, in comparison to untreated samples, read-out: effect in at least one of the two categories (mortality or growth inhibition)
Experimental: Example B6: Activity Against Plutella xylostella (Diamond Back Moth)
24-well microtiter plates with artificial diet were treated with aqueous test solutions prepared from 10′000 ppm DMSO stock solutions by pipetting. After drying, Plutella eggs were pipetted through a plastic stencil onto a gel blotting paper and the plate was closed with it. The samples were assessed for mortality and growth inhibition in comparison to untreated samples 8 days after infestation. The following compounds gave an effect of at least 80% in at least one of the two categories (mortality or growth inhibition) at an application rate of 200 ppm: P.1, P.2, P.3, P.4, P.5, P.6, P.7, P.8, P.9, P.10, P.11, P.12.

[5] = tested on: Diabrotica balteata (Corn Root Worm); experiment: Example B2: Activity against Diabrotica balteata (corn root worm), maize sprouts, L2 larvae; conditions: 96 h, application rate of 200 ppm, 4 days after infestation, in comparison to untreated samples, read-out: effect in at least one of the two categories (mortality or growth inhibition)
Experimental: Example B2: Activity Against Diabrotica balteata (Corn Root Worm)
Maize sprouts placed onto an agar layer in 24-well microtiter plates were treated with aqueous test solutions prepared from 10′000 ppm DMSO stock solutions by spraying. After drying, the plates were infested with L2 larvae (6 to 10 per well). The samples were assessed for mortality and growth inhibition in comparison to untreated samples 4 days after infestation.

[6] = tested on: Myzus persicae (Green peach aphid); experiment: Example B4: Activity against Myzus persicae (green peach aphid), feeding/contact activity, sunflower leaf discs; conditions: foliar, 144 h, application rate of 200 ppm, 6 days after infestation
Experimental: Example B4: Activity against Myzus persicae (Green peach aphid) Feeding/Contact activity Sunflower leaf discs were placed onto agar in a 24-well microtiter plate and sprayed with aqueous test solutions prepared from 10′000 ppm DMSO stock solutions. After drying, the leaf discs were infested with an aphid population of mixed ages. The samples were assessed for mortality 6 days after infestation.

[7] = tested on: Euschistus heros (Neotropical Brown Stink Bug); experiment: Example B3: Activity against Euschistus heros (neotropical brown stink bug), soybean leaves, N2 nymphs; conditions: 120 h, application rate of 200 ppm, 5 days after infestation, in comparison to untreated samples, read-out: effect in at least one of the two categories (mortality or growth inhibition)
Experimental: Example B3: Activity Against Euschistus heros (Neotropical Brown Stink Bug)
Soybean leaves on agar in 24-well microtiter plates were sprayed with aqueous test solutions prepared from 10′000 ppm DMSO stock solutions. After drying the leaves were infested with N2 nymphs. The samples were assessed for mortality and growth inhibition in comparison to untreated samples 5 days after infestation.

CCS(=O)(=O)c1cc(C2(C#N)CC2)cnc1N1CCc2nc(OC3CC3)ccc2C1=O [P.7, 1-[6-[2-(cyclopropoxy)-5-oxo-7,8-dihydro-1,6-naphthyridin-6-yl]-5-ethylsulfonyl-3-pyridyl]cyclopropane-carbonitrile]
≥ 80%: mortality at 24 ppm [1] | control at 200 ppm [2] | percent control (mortality, anti-feedant effect or growth inhibition) at 200 ppm [3] | percent effect (mortality or growth inhibition) at 200 ppm [4] | percent effect (mortality or growth inhibition) at 200 ppm [5] | mortality at 200 ppm [6]

CCS(=O)(=O)c1cc(C2(C#N)CC2)cnc1N1CCc2nc(OCC(F)(F)C(F)(F)F)ccc2C1=O [P.12, 1-[5-ethylsulfonyl-6-[5-oxo-2-(2,2,3,3,3-pentafluoropropoxy)-7,8-dihydro-1,6-naphthyridin-6-yl]-3-pyridyl]cyclopropane-carbonitrile]
≥ 80%: control at 200 ppm [2] | percent control (mortality, anti-feedant effect or growth inhibition) at 200 ppm [3] | percent effect (mortality or growth inhibition) at 200 ppm [4] | percent effect (mortality or growth inhibition) at 200 ppm [5] | mortality at 200 ppm [6]

CCS(=O)(=O)c1c(N2CCc3nc(C(F)(F)F)ccc3C2=O)nc2cc(C(F)(F)F)ccn12 [P.1, 6-[3-ethylsulfonyl-7-(trifluoromethyl)imidazo[1,2-a]pyridin-2-yl]-2-(trifluoromethyl)-7,8-dihydro-1,6-naphthyridin-5-one]
≥ 80%: control at 200 ppm [2] | percent control (mortality, anti-feedant effect or growth inhibition) at 200 ppm [3] | percent effect (mortality or growth inhibition) at 200 ppm [4] | percent effect (mortality or growth inhibition) at 200 ppm [5] | mortality at 200 ppm [6]

CCS(=O)(=O)c1cc(C2(C#N)CC2)cnc1N1CCc2nc(C(F)(F)C(F)(F)F)ccc2C1=O [P.5, 1-[5-ethylsulfonyl-6-[5-oxo-2-(1,1,2,2,2-pentafluoroethyl)-7,8-dihydro-1,6-naphthyridin-6-yl]-3-pyridyl] cyclopropane-carbonitrile]
≥ 80%: percent effect (mortality or growth inhibition) at 200 ppm [7] | control at 200 ppm [2] | percent control (mortality, anti-feedant effect or growth inhibition) at 200 ppm [3] | percent effect (mortality or growth inhibition) at 200 ppm [4] | percent effect (mortality or growth inhibition) at 200 ppm [5]

CCS(=O)(=O)c1cc(C2(C#N)CC2)cnc1N1CCc2cc(C(F)(F)F)ccc2C1=O [P.2, 1-[5-ethylsulfonyl-6-[1-oxo-6-(trifluoromethyl)-3,4-dihydroisoquinolin-2-yl]-3-pyridyl]cyclopropane-carbonitrile]
≥ 80%: percent effect (mortality or growth inhibition) at 200 ppm [7] | percent control (mortality, anti-feedant effect or growth inhibition) at 200 ppm [3] | percent effect (mortality or growth inhibition) at 200 ppm [4] | percent effect (mortality or growth inhibition) at 200 ppm [5] | mortality at 200 ppm [6]

CCS(=O)(=O)c1cc(C2(C#N)CC2)cnc1N1CCc2cc(OC(F)(F)F)ccc2C1=O [P.4, 1-[5-ethylsulfonyl-6-[1-oxo-6-(trifluoromethoxy)-3,4-dihydroisoquinolin-2-yl]-3-pyridyl] cyclopropane-carbonitrile]
≥ 80%: percent effect (mortality or growth inhibition) at 200 ppm [7] | control at 200 ppm [2] | percent control (mortality, anti-feedant effect or growth inhibition) at 200 ppm [3] | percent effect (mortality or growth inhibition) at 200 ppm [4] | percent effect (mortality or growth inhibition) at 200 ppm [5] | mortality at 200 ppm [6]

CCS(=O)(=O)c1cc(C2(C#N)CC2)cnc1N1CCc2nc(C(F)(F)F)ccc2C1=O [P.3, 1-[5-ethylsulfonyl-6-[5-oxo-2-(trifluoromethyl)-7,8-dihydro-1,6-naphthyridin-6-yl]-3-pyridyl] cyclopropane-carbonitrile]
≥ 80%: mortality at 24 ppm [1] | percent effect (mortality or growth inhibition) at 200 ppm [7] | control at 200 ppm [2] | percent control (mortality, anti-feedant effect or growth inhibition) at 200 ppm [3] | percent effect (mortality or growth inhibition) at 200 ppm [4] | percent effect (mortality or growth inhibition) at 200 ppm [5] | mortality at 200 ppm [6]

CCS(=O)(=O)c1cc(C2(C#N)CC2)cnc1N1CCc2nc(OCC(Cl)(Cl)C(F)(F)F)ccc2C1=O [P.13, 1-[6-[2-(2,2-dichloro-3,3,3-trifluoro-propoxy)-5-oxo-7,8-dihydro-1,6-naphthyridin-6-yl]-5-ethylsulfonyl-3-pyridyl]cyclopropane-carbonitrile]
≥ 80%: control at 200 ppm [2] | percent control (mortality, anti-feedant effect or growth inhibition) at 200 ppm [3]

CCS(=O)(=O)c1cc(C2(C#N)CC2)cnc1N1CCc2nc(OCC(Cl)(Cl)Cl)ccc2C1=O [P.11, 1-[5-ethylsulfonyl-6-[5-oxo-2-(2,2,2-trichloroethoxy)-7,8-dihydro-1,6-naphthyridin-6-yl]-3-pyridyl]cyclopropane-carbonitrile]
≥ 80%: control at 200 ppm [2] | percent control (mortality, anti-feedant effect or growth inhibition) at 200 ppm [3] | percent effect (mortality or growth inhibition) at 200 ppm [4]

CCS(=O)(=O)c1cc(C2(C#N)CC2)cnc1N1CCc2c(ccc3c2OC(F)(F)O3)C1=O [P.6, 1-[6-(2,2-difluoro-6-oxo-8,9-dihydro-[1,3]dioxolo[4,5-f]isoquinolin-7-yl)-5-ethylsulfonyl-3-pyridyl]cyclopropane-carbonitrile]
≥ 80%: percent effect (mortality or growth inhibition) at 200 ppm [7] | control at 200 ppm [2] | percent control (mortality, anti-feedant effect or growth inhibition) at 200 ppm [3] | percent effect (mortality or growth inhibition) at 200 ppm [4] | percent effect (mortality or growth inhibition) at 200 ppm [5] | mortality at 200 ppm [6]

CCS(=O)(=O)c1cc(C2(C#N)CC2)cnc1N1CCc2nc(Cl)ccc2C1=O [P.8, 1-[6-(2-chloro-5-oxo-7,8-dihydro-1,6-naphthyridin-6-yl)-5-ethylsulfonyl-3-pyridyl]cyclopropane-carbonitrile]
≥ 80%: mortality at 24 ppm [1] | control at 200 ppm [2] | percent effect (mortality or growth inhibition) at 200 ppm [4]

CCS(=O)(=O)c1cc(C2(C#N)CC2)cnc1N1CCc2nc(OCC(F)(F)C(F)F)ccc2C1=O [P.10, 1-[5-ethylsulfonyl-6-[5-oxo-2-(2,2,3,3-tetrafluoropropoxy)-7,8-dihydro-1,6-naphthyridin-6-yl]-3-pyridyl] cyclopropane-carbonitrile]
≥ 80%: control at 200 ppm [2] | percent control (mortality, anti-feedant effect or growth inhibition) at 200 ppm [3] | percent effect (mortality or growth inhibition) at 200 ppm [4] | percent effect (mortality or growth inhibition) at 200 ppm [5] | mortality at 200 ppm [6]

CCS(=O)(=O)c1cc(C2(C#N)CC2)cnc1N1CCc2nc(OCC(F)(F)Cl)ccc2C1=O [P.9, 1-[6-[2-(2-chloro-2,2-difluoro-ethoxy)-5-oxo-7,8-dihydro-1,6-naphthyridin-6-yl]-5-ethylsulfonyl-3-pyridyl]cyclopropane-carbonitrile]
≥ 80%: percent effect (mortality or growth inhibition) at 200 ppm [7] | control at 200 ppm [2] | percent control (mortality, anti-feedant effect or growth inhibition) at 200 ppm [3] | percent effect (mortality or growth inhibition) at 200 ppm [4] | percent effect (mortality or growth inhibition) at 200 ppm [5] | mortality at 200 ppm [6]

From US20260223853A1, “PESTICIDALLY ACTIVE HETEROCYCLIC DERIVATIVES WITH SULFUR CONTAINING SUBSTITUENTS” (SYNGENTA CROP PROTECTION AG, priority 2023, published 2026)
